According to patent publication US4731486A, “Hydroformylation using low volatile phosphine ligands” (Union Carbide Corporation, priority 1986, dated 1988):
Structures can show the parent of a compound that is named as a salt.

Tests used:
[1] = Batch hydroformylation of propylene in stirred autoclave (Examples 1, 2, 11, 14, 19); conditions: 200 ppm Rh, about 120 mole equivalents ligand, 100° C., 90 psia 1:1:1 H2:CO:C3H6, lithium salt
Protocol: A series of various rhodium complex catalyst precursor solutions consisting essentially of the solubilized reaction product of rhodium dicarbonyl acetylacetonate and various monosulfonated triphenylphosphine metal salt ligands were prepared and employed to hydroformylate propylene into C4 aldehydes in the following manner.
Each rhodium catalytic precursor solution so prepared was then employed to hydroformylate propylene in a magnetically stirred, 100 mL capacity, stainless steel autoclave which was attached to a gas manifold for introducing gases to the desired partial pressures. The autoclave was also equipped with a pressure calibrator for determining reaction pressure to ±0.01 psia. and a platinum resistance thermometer for determining reactor solution temperatures to ±0.10° C. The reactor was heated externally by two 300 watt heating bands. The reactor solution temperature was controlled by a platinum resistance sensor connected to an external proportional temperature controller for controlling the temperature of the external band heaters.
In each non-aqueous hydroformylation reaction, about 15 milliliters (about 14 grams) of the rhodium catalytic precursor solution so prepared was charged to the autoclave reactor under nitrogen and heated to the reaction temperature employed (as given in Table 1 below). The reactor was then vented down to 5 psig. and a premixed gas mixture of 1:1:1 carbon monoxide:hydrogen:propylene was introduced into the reactor via the gas manifold (partial pressures given in Table 1) and the propylene so hydroformylated.
A comparison of the catalytic activity of aqueous and non-aqueous solutions of monosulfonated triphenylphosphine sodium salt ligand promoted catalysts in hydroformylating various molecular weight alphe-olefins was determined as follows.
Both the aqueous and non-aqueous hydroformylation reactions were conducted under identical conditions with regard to temperature, rhodium and ligand concentration, hydrogen and carbon monoxide partial pressure and olefin concentration.

[2] = Solubility of metal salt ligands in nonanal with added solubilizing agent; format: physicochemical; conditions: 25° C.; nonanal with 1:4 CARBOWAX TPEG-900/TERGITOL NP-9; lithium salt
[3] = Solubility of metal salt ligands in different aldehydes; format: physicochemical; conditions: lithium salt
[4] = Continuous single pass hydroformylation of butene-1 (Examples 3, 4, 5, 7, 12); conditions: Texanol
Protocol: Continuous hydroformylation of butene-1 a monosulfonated triphenylphosphine metal salt ligand was conducted in the following manner.
The non-aqueous hydroformylation was conducted in a glass reactor operating in a continuous single pass butene-1 hydroformylation mode. The reactor consisted of a three-ounce pressure bottle submersed in an oil bath with a lass front for viewing. About 20-mL of a freshly prepared rhodium catalytic precursor solution was charged to the reactor with a syringe, after purging the system with nitrogen. […] After closing the reactor, the system was again purged with nitrogen and the oil bath was heated to furnish the desired hydroformylation reaction temperature. The hydroformylation reaction was conducted at a total gas pressure of about 160 psig., the partial pressures of hydrogen, carbon monoxide, and butene-1 being given in Table 3 below, the remainder being nitrogen and aldehyde product.
The flows of the feed gases (carbon monoxide, hydrogen, butene-1 and nitrogen) were controlled individually with mass flow meters and the feed gases dispersed into the precursor solution via microporous stainless steel spargers. The unreacted portion of the feed gases was stripped out with the product C5 aldehydes and the outlet gas analyzed over about 12 days of continuous operation.

[5] = day 0.8, 101 °C, CO 18, H2 48, C4H8 19
[6] = day 4.0, 101 °C, CO 17, H2 52, C4H8 49
[7] = day 6.0, 101 °C, CO 17, H2 52, C4H8 50
[8] = day 6.9, 101 °C, CO 19, H2 50, C4H8 41
[9] = day 8.0, […], CO 18, H2 56, C4H8 38
[10] = day 9.0, […], CO 18, H2 57, C4H8 38
[11] = day 10.0, […], CO 18, H2 57, C4H8 38
[12] = day 10.7, […], CO 18, H2 57, C4H8 38
[13] = day 11.6, 103 °C, CO 18, H2 57, C4H8 38

Which results are given for O=S(=O)(O)c1cccc(P(c2ccccc2)c2ccccc2)c1 [TPPMS-Li, monosulfonated triphenylphosphine lithium salt]?
Linear/Branched Aldehyde Mole Ratio ([1]; Texanol/Carbowax PEG-600: Li 100:0, K 9:1, Rb 8:1, Ca 20:1, Ba 7:1): 6.3; Reaction Rate (C4 aldehydes) ([1]; Texanol/Carbowax PEG-600: Li 100:0, K 9:1, Rb 8:1, Cs 7:1, Ca 20:1, Ba 7:1, Sr 18:1): 0.35 Gmoles/L/Hr; Metal Salt Solubility [2]: 12 Wt. %; Metal Salt Solubility ([3]; Butyraldehyde, 60 °C): 0.5 Wt. %; Metal Salt Solubility ([3]; Heptanal, 80 °C): < 0.7 Wt. %; Metal Salt Solubility ([3]; Nonanal, 80 °C): < 0.5 Wt. %; Metal Salt Solubility ([3]; Propionaldehyde, 35 °C): 8.8 Wt. %; Metal Salt Solubility ([3]; Tridecanal, 80 °C): < 0.5 Wt. %; Metal Salt Solubility ([3]; Valeraldehyde, 80 °C): < 0.5 Wt. %; Linear/Branched Aldehyde Mole Ratio [4, 5]: 30.34; Rate (C5 aldehydes), daily average [4, 5]: 1.02 gmoles/L/Hr; Linear/Branched Aldehyde Mole Ratio [4, 6]: 11.20; Rate (C5 aldehydes), daily average [4, 6]: 1.25 gmoles/L/Hr; Rate (C5 aldehydes), daily average ([4]; day 4.8, 101 °C, CO 17, H2 52, C4H8 50): 1.19 gmoles/L/Hr; Linear/Branched Aldehyde Mole Ratio [4, 7]: 2.98; Rate (C5 aldehydes), daily average [4, 7]: 1.27 gmoles/L/Hr; Linear/Branched Aldehyde Mole Ratio [4, 8]: 31.75; Rate (C5 aldehydes), daily average [4, 8]: 1.28 gmoles/L/Hr; Linear/Branched Aldehyde Mole Ratio [4, 9]: 40.30; Rate (C5 aldehydes), daily average [4, 9]: 1.28 gmoles/L/Hr; Linear/Branched Aldehyde Mole Ratio [4, 10]: 28.90; Rate (C5 aldehydes), daily average [4, 10]: 1.30 gmoles/L/Hr; Linear/Branched Aldehyde Mole Ratio [4, 11]: 29.63; Rate (C5 aldehydes), daily average [4, 11]: 1.27 gmoles/L/Hr; Linear/Branched Aldehyde Mole Ratio [4, 12]: 37.18; Rate (C5 aldehydes), daily average [4, 12]: 1.27 gmoles/L/Hr; Linear/Branched Aldehyde Mole Ratio [4, 13]: 30.18; Rate (C5 aldehydes), daily average [4, 13]: 1.21 gmoles/L/Hr
